Among the data in patent publication US4983597A, “Beta-lactams as anticholesterolemic agents” (Merck & Co., Inc., priority 1989, dated 1991) are IC50 values, retold here.

In general, IC50 refers to the concentration needed to halve the response being measured. Low readings indicate greater potency in that assay, high ones weaker potency in that assay.

The test addresses T1, HMG-CoA synthase (Rattus norvegicus, UniProt P17425).
T1 construct: The livers from male Charles River CD rats (225-350 g) were homogenized; from tissue; host or cells: rat liver (male Charles River CD rats), 100,000 x g supernatant, ammonium sulfate and DEAE-52 fraction
T1 sequence (P17425 1-520): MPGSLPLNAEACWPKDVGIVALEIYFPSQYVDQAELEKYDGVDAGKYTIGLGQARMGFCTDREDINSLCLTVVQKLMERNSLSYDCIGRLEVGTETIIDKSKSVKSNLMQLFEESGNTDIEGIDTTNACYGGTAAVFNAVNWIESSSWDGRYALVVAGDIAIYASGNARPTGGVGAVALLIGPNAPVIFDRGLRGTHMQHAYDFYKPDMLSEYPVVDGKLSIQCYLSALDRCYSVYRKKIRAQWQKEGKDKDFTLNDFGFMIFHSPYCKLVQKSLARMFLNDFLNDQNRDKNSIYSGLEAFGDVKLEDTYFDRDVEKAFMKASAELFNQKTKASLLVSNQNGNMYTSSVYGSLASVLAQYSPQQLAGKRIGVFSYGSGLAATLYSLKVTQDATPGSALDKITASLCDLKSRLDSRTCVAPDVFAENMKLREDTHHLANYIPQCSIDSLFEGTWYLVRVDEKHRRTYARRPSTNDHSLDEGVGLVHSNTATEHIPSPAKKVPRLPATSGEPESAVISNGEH
Description: HMG-CoA Synthase Inhibition Assay. Particulars: Table I; rat liver enzyme, 1-[14C]-acetyl-CoA incorporation. The class given is biochemical. Here is the method: The intrinisic HMG-CoA synthase inhibition activity of the compounds of this invention is measured by the standard in vitro protocol described below:
The livers from male Charles River CD rats (225-350 g) were homogenized in 0.25 M sucrose which was adjusted with phenylmethylsulfonylfluoride (PMSF) and N-p-tosyl-1-lysine chloromethyl ketone (TLCK) so that the final concentration of each was […], respectively. The homogenate was centrifuged at 15,000× g for 20 minutes, the supernatant filtered through a fine nylon screen to remove most of the fat layer and recentrifuged at 100,000× g for 1 hour. This supernatant was removed and 1 M potassium phosphate, dithiothreitol (DTT) and ethylene glycolbis(β-aminoethyl ether)-N,N,N',N'-tetraacetic acid (EGTA) added to give a final concentration of 0.1 M (pH 7.2), 0.5 mM and 0.1 mM, respectively. Solid ammonium sulfate was added to 50% saturation to the protein solution, it was centrifuged at 15,000× g and the supernatant discarded. This precipitated protein could be stored at -70° C. for at least one month with very little loss of activity. The ammonium sulfate precipitate was dissolved in an minimal amount of 0.06 M potassium phosphate buffer (pH 7.2) containing 0.5 mM dithiothreitol and 0.1 mM EGTA (referred to as 0.06 M phosphate buffer) and dialyzed overnight against 2 liters of the same buffer to remove the ammonium sulfate and to inactivate HMG-CoA lyase [Clinkenbeard, et al., J. Biol. Chem. 250, 3108-3116(1975)].
The dialyzed extract was added to a column of DEAE-52 (Whatman) which had been equilibrated with 0.06 M phosphate buffer (10 mg of protein in 1 ml bed volume of the resin). The DEAE-cellulose was eluted with 0.06 M phosphate buffer until the optical density at 280 nm was essentially zero. This fraction contained the β-ketoacetyl-CoA thiolase activity. The HMG-CoA synthase was eluted from the column with 0.1 M phosphate buffer (pH 7.2) containing 0.5 mM DTT and […] EGTA, and was virtually free of all thiolase activity. The protein was precipitated by the addition of ammonium sulfate to give 50% saturation. This solution was stirred for 10 minutes at 4° C. and the precipitate collected by centrifugation at 15,000 rpm for 10 minutes. The supernatant was discarded and the precipitate dissolved in a minimum of 0.06 M phosphate buffer, pH 7.2 (about 10 ml) and the enzyme stored at -80° C.
HMG-CoA Synthase Inhibition Assay
Enzyme protein (ca. 24 mg) was added to a solution containing […] Tris-HCl (pH 8.0), 11.7 μM MgCl2, 1.17 μM ethylenediaminetetraacetic acid (EDTA), 0.58 μM dithiothreitol, and the indicated concentrations of the test compound (added as a 2 mg/ml solution in dimethylsulfoxide). The incubation took place in a volume of 0.085 ml at 30° in a shaking water bath. After 5 minutes, […] of a solution containing acetoacetyl-CoA and 0.1 μCi of 1-[^14 C]-acetyl-CoA was added to give a final concentrations of 0.1 and 0.4 μM, respectively. The incubation was continued for 10 more minutes and the reaction stopped by the addition of […] of the assay mixture to 0.2 ml of 6N HCl in a glass scintillation vial. The vial was heated for 1 hour at 120° after which time 0.2 ml more of 6N HCl was again added to each vial and the heating continued for another hour. Following this, 1.0 ml of 0.9% saline was added to each vial and finally 10 ml of scintillation liquid. Radioactivity was determined in a Packard Tri-Carb liquid scintillation counter. Percent inhibition is calculated by the formula: [formula]
IC50 values were determined by plotting the log of the concentration of the test compound verses the percentage inhibition and fitting a straight line to the resulting data by using the least squares method.
Regarding `CC[C@@H]1C(=O)N(S(=O)(=O)c2ccc(C)cc2)[C@@H]1COC(=O)c1ccsc1` (relative stereo) [Table I a], 710 nM corresponded to half-maximal inhibition (IC50).

Compound `COc1ccc(C(=O)OC[C@@H]2[C@H](CO)C(=O)N2S(=O)(=O)c2ccc(C)cc2)cc1` (relative stereo) [Table I aa] gave an IC50 of 180 nM. In the case of `CC[C@@H]1C(=O)N(S(=O)(=O)c2ccc(C)cc2)[C@@H]1COC(=O)c1cccc(NS(C)(=O)=O)c1` (relative stereo) [Table I b] it was 25 nM; in that of `CC[C@@H]1C(=O)N(S(=O)(=O)c2ccc(C)cc2)[C@@H]1COC(=O)c1cccnc1` (relative stereo) [Table I bb], 64 nM; in that of `CC[C@@H]1C(=O)N(S(=O)(=O)c2ccc(C)cc2)[C@@H]1COC(=O)c1ccccc1[N+](=O)[O-]` (relative stereo) [Table I c], 23 nM.

`CC[C@@H]1C(=O)N(S(=O)(=O)c2ccc(C)cc2)[C@@H]1COC(=O)c1ccc(OC)cc1` (relative stereo) [Table I cc] returned an IC50 of 30 nM. As for `CC[C@@H]1C(=O)N(S(=O)(=O)c2ccc(C)cc2)[C@@H]1COC(=O)c1ccncc1` (relative stereo) [Table I d], the figure is 62 nM. In the case of `CC[C@@H]1C(=O)N(S(=O)(=O)c2ccc(C)cc2)[C@@H]1COC(=O)c1ccccc1` (relative stereo) [Table I dd] it was 110 nM. `CC[C@@H]1C(=O)N(S(=O)(=O)c2ccc(C)cc2)[C@@H]1COC(=O)c1ccccn1` (relative stereo) [Table I e] came in with an IC50 of 54 nM. In the case of `CC[C@@H]1C(=O)N(S(=O)(=O)c2ccc(C)cc2)[C@@H]1COC(=O)c1cc2ccccc2oc1=O` (relative stereo) [Table I ee] it was 50 nM. For `CC[C@@H]1C(=O)N(S(=O)(=O)c2ccc(C)cc2)[C@@H]1COC(=O)c1ccc(OC)nc1` (relative stereo) [Table I f], the IC50 turned out to be 41 nM.

Take `CC[C@@H]1C(=O)N(S(=O)(=O)c2ccc(C)cc2)[C@@H]1COC(=O)c1cc2ccccc2o1` (relative stereo) [Table I ff]: the IC50 amounted to 33 nM.

As to `CC[C@@H]1C(=O)N(S(=O)(=O)c2ccc(C)cc2)[C@@H]1COC(=O)c1ccco1` (relative stereo) [Table I g], it took 7.9 nM to reach half-maximal inhibition (IC50). Regarding `CCCCc1ccc(C(=O)OC[C@@H]2[C@H](CC)C(=O)N2S(=O)(=O)c2ccc(C)cc2)nc1` (relative stereo) [Table I h], it took 45 nM to reach half-maximal inhibition (IC50). Compound `COc1ccc(C(=O)OC[C@@H]2[C@H](C(C)C)C(=O)N2S(=O)(=O)c2ccc(C)cc2)cc1` (relative stereo) [Table I hh] gave an IC50 of 130 nM. As for `CC[C@@H]1C(=O)N(S(=O)(=O)c2ccc(C)cc2)[C@@H]1COC(=O)c1ccc(C(=O)OC)cc1` (relative stereo) [Table I ii], the figure is 8.5 nM; as for `CCCCNC(=O)c1ccc(C(=O)OC[C@@H]2[C@H](CC)C(=O)N2S(=O)(=O)c2ccc(C)cc2)cc1` (relative stereo) [Table I jj], 20 nM; as for `CC[C@@H]1C(=O)N(S(=O)(=O)c2ccc(C)cc2)[C@@H]1COC(=O)c1cccc([N+](=O)[O-])c1` (relative stereo) [Table I k], 39 nM. In the case of `CC[C@@H]1C(=O)N(S(=O)(=O)c2ccc(C)cc2)[C@@H]1COC(=O)c1ccc(N)cc1` (relative stereo) [Table I kk] it was 47 nM.

`CC[C@@H]1C(=O)N(S(=O)(=O)c2ccc(C)cc2)[C@@H]1COC(=O)c1ccccc1NS(C)(=O)=O` (relative stereo) [Table I l] gave an IC50 of 31 nM. With `C=CCOc1c(OC)cc(C(=O)OC[C@@H]2[C@H](CC)C(=O)N2S(=O)(=O)c2ccc(C)cc2)cc1[N+](=O)[O-]` (relative stereo) [Table I ll], the IC50 is 160 nM.

As for `CC[C@@H]1C(=O)N(S(=O)(=O)c2ccc(C)cc2)[C@@H]1COC(=O)c1ccnnc1` (relative stereo) [Table I m], 82 nM corresponded to half-maximal inhibition (IC50). For the compound `C=CCOc1c(NC(C)=O)cc(C(=O)OC[C@@H]2[C@H](CC)C(=O)N2S(=O)(=O)c2ccc(C)cc2)cc1OC` (relative stereo) [Table I mm], the IC50 worked out at 300 nM.

`CC[C@@H]1C(=O)N(S(=O)(=O)c2ccc(C)cc2)[C@@H]1COC(=O)c1ccccc1N` (relative stereo) [Table I n] had an IC50 of 31 nM. As for `CC[C@@H]1C(=O)N(S(=O)(=O)c2ccc(C)cc2)[C@@H]1COC(=O)c1ccc(NS(C)(=O)=O)cc1` (relative stereo) [Table I nn], the figure is 16 nM.

In turn, `CC[C@@H]1C(=O)N(S(=O)(=O)c2ccc(C)cc2)[C@@H]1COC(=O)c1ccoc1` (relative stereo) [Table I o] returned an IC50 of 320 nM. As for `CC[C@@H]1C(=O)N(S(=O)(=O)c2ccc(C)cc2)[C@@H]1COC(=O)c1cnc(OC)c(OC)c1` (relative stereo) [Table I oo], the figure is 38 nM; as for `CC[C@@H]1C(=O)N(S(=O)(=O)c2ccc(C)cc2)[C@@H]1COC(=O)c1ccc2ccccc2n1` (relative stereo) [Table I p], 21 nM; as for `CC[C@@H]1C(=O)N(S(=O)(=O)c2ccc(C)cc2)[C@@H]1COC(=O)c1ccc(OC)c(OC)n1` (relative stereo) [Table I pp], 89 nM. `CC[C@@H]1C(=O)N(S(=O)(=O)c2ccc(C)cc2)[C@@H]1COC(=O)c1ccc(OCc2ccccc2)cc1` (relative stereo) [Table I q] gave an IC50 of 40 nM. As for `CC[C@@H]1C(=O)N(S(=O)(=O)c2ccc(C)cc2)[C@@H]1COC(=O)c1csc(OC)n1` (relative stereo) [Table I qq], the figure is 45 nM. The compound `CC[C@@H]1C(=O)N(S(=O)(=O)c2ccc(C)cc2)[C@@H]1COC(=O)c1ccnc2ccccc12` (relative stereo) [Table I r] gave an IC50 of 25 nM. Compound `CCC[C@@H]1C(=O)N(S(=O)(=O)c2ccc(C)cc2)[C@H]1COC(=O)c1ccc(OC)cc1` (relative stereo) [Table I rr] had an IC50 of 35 nM. `CC[C@@H]1C(=O)N(S(=O)(=O)c2ccc(C)cc2)[C@@H]1COC(=O)c1cccs1` (relative stereo) [Table I s]: the IC50 came out at 38 nM. As for `COc1ccc(C(=O)OC[C@H]2[C@H](CO)C(=O)N2S(=O)(=O)c2ccc(C)cc2)cc1` (relative stereo) [Table I ss], the figure is 150 nM; as for `CC[C@@H]1C(=O)N(S(=O)(=O)c2ccc(C)cc2)[C@@H]1COC(=O)c1cccnc1Oc1ccccc1` (relative stereo) [Table I t], 33 nM; as for `CC[C@@H]1C(=O)N(S(=O)(=O)c2ccc(C)cc2)[C@H]1COC(=O)c1ccc(OC)cc1` (relative stereo) [Table I tt], 170 nM.
